Assay results published in ChEMBL document CHEMBL1133912, “Coupling of the antennapedia third helix to a potent antagonist of the p53/hdm2 protein-protein interaction” (Bioorg Med Chem Lett, 2001).
pIC50: −log10 of the molar value. Square brackets hold non-standard residues; d marks the D form. Peptide text beside a SMILES is read from it. Trp(6-Cl) = N[C@@H](Cc1c[nH]c2cc(Cl)ccc12)C(=O)O; Pmp = N[C@@H](Cc1ccc(CP(=O)(O)O)cc1)C(=O)O; Ac3c = NC1(C(=O)O)CC1; Aib = CC(C)(N)C(=O)O

Assay: In vitro inhibition of binding towards of human wild-type p53 to GST-hdm2

| Structure (SMILES) | pIC50 |
| --- | --- |
| CSCC[C@H](NC(=O)[C@H](Cc1ccccc1)NC(C)=O)C(=O)NC(C)(C)C(=O)N[C@@H](Cc1ccc(CP(=O)(O)O)cc1)C(=O)N[C@@H](C)C(=O)N[C@@H](CCC(=O)O)C(=O)NC1(C(=O)N[C@@H](CC(C)C)C(N)=O)CC1 (Ac-FM[Aib][Pmp]AE[Ac3c]L-NH2) | < 5.70 |
| CSCC[C@H](NC(=O)[C@H](Cc1ccccc1)NC(C)=O)C(=O)NC(C)(C)C(=O)N[C@@H](Cc1ccc(CP(=O)(O)O)cc1)C(=O)N[C@@H](Cc1c[nH]c2cc(Cl)ccc12)C(=O)N[C@@H](CCC(=O)O)C(=O)NC1(C(=O)N[C@@H](CC(C)C)C(N)=O)CC1 (Ac-FM[Aib][Pmp][Trp(6-Cl)]E[Ac3c]L-NH2) | 8.30 |
